Experimental data as given in patent US7884071B2, “Administration form for pharmaceutically active peptides with sustained release and method for the production thereof” (Zentaris GmbH, priority 2002, dated 2011).
Structures can show the parent of a compound that is named as a salt. Where a SMILES comes first, the peptide text is derived from it. [ ]: non-standard residue; d: D form. dPhe(4-Cl) = N[C@H](Cc1ccc(Cl)cc1)C(=O)O; d2Nal = N[C@H](Cc1ccc2ccccc2c1)C(=O)O; d(hCit) = NC(=O)NCCCC[C@@H](N)C(=O)O; NMeY = CN[C@@H](Cc1ccc(O)cc1)C(=O)O; d3Pal = N[C@H](Cc1cccnc1)C(=O)O; Nle = CCCC[C@H](N)C(=O)O

Test: Fig. 6: Physicochemical data on D-63 153
From the text: Table printed on a drawing sheet, Fig. 6
Title: Fig. 6: Physicochemical data on D-63 153
First reader's note: Unruled property list for a single peptide; the value of 'Structural formula:' is a chemical drawing and is left empty.

CCCC[C@H](NC(=O)[C@@H](CCCCNC(N)=O)NC(=O)[C@H](Cc1ccc(O)cc1)N(C)C(=O)[C@H](CO)NC(=O)[C@@H](Cc1cccnc1)NC(=O)[C@@H](Cc1ccc(Cl)cc1)NC(=O)[C@@H](Cc1ccc2ccccc2c1)NC(C)=O)C(=O)N[C@@H](CCCNC(=N)N)C(=O)N1CCC[C@H]1C(=O)N[C@H](C)C(N)=O [D-63153 (e.g. acetate salt), Ac-D-Nal(2)-D-Cpa-D-Pal(3)-Ser-N-Me-Tyr-D-Hci- Nle-Arg-Pro-D-Ala-NH2] (Ac-[d2Nal][dPhe(4-Cl)][d3Pal]S[NMeY][d(hCit)][Nle]RP[dA]-NH2)
Solubility:: 0.75 mg/ml in water
